Article PMC12115180 (Pharmaceuticals, 2025)
Where two headings read alike, the source gives them in different places.

Columns and labels:
[1] = Rabbit, average of n = 6; 0.5% 50 μL, 250 μg; cited from earlier work
[2] = Human peak plasma exposure (package insert); format: in vivo; settings: 600 mg intravenous dose, calculated from package insert values
[3] = parameters: method as in PMID 17995946; settings: typical six-month course for tuberculosis; cited from earlier work
[4] = system: patients with Central Serous Chorioretinopathy (CSC); settings: cited from earlier work
[5] = Non-GLP tox studies in rabbits, topical application; format: in vivo; settings: twice daily topical application of 1% rifampicin, 3-month dosing (Unpublished data)
[6] = parameters: method as in WO 2023/234423 A1; settings: mouse, SC; ref WO 2023/234423 A1; cited from earlier work
[7] = Retinal delivery of rifampicin in rat after topical 0.25% eye drops; format: in vivo, Sprague-Dawley rats
Procedure: A single drop contained 5 μL of the above-described formulation, and the application of each drug drop was carried out at intervals of 30 min. After the eye drop application, euthanasia was performed using CO2 gas, and the retina was excised from each rat under a dissection microscope. In addition, “non-treated” negative controls were used, and the retina was excised from two rats without performing any treatments on the rats. The retina was placed in a 1.5 mL microcentrifuge tube (1 retina/tube) and was fully washed with DPBS. After completion of the washing procedures, the retinal tissues in the microcentrifuge tube were frozen in dry ice and then preserved for quantification by LC/MS analysis.

[8] = system: mouse laser-induced CNV model; assay: Mouse laser-induced CNV model
[9] = system: oxygen-induced retinopathy rat models; assay: Oxygen-induced retinopathy rat model, capillary count in histology sections; format: in vivo, Sprague–Dawley rat; settings: SC injection 20 mg/kg once a day P15–P19, histology P20
Description: Oxygen-induced retinopathy rat models were produced according to the protocols of Yanni et al. (2010). Sprague–Dawley rat babies (and their nursing mothers) were exposed to a cycling oxygen environment (80% and 21%, about one day for each) for 15 days after starting from the day of birth (Day 0). On Day 15 (P15), the animals were moved to room air. […] On P20, all of the animals were euthanized by CO2 gas, and the retina was visualized as histology sections.

[10] = Rat retina pharmacokinetics, single topical 0.25% rifampicin eye drop; format: in vivo, Sprague–Dawley rats; settings: male, Sprague-Dawley, topical or ocular, 15 μL of 0.25% rifampicin eye drop
Procedure: At time points of 1 h, 3 h, and 7 h after the application of the eye drops, euthanasia was performed using CO2 gas, and the retinal tissues were excised from the rats under a dissection microscope. In addition, “non-treated” negative controls were used, and the retina was excised from one rat without performing any treatments on the rat. The retina was placed in a 1.5-mL microcentrifuge tube (1 retina/tube) and was fully washed with DPBS. After completion of the washing procedures, the retinal tissues in the microcentrifuge tube were frozen in dry ice and then preserved for quantification by LC/MS analysis.

[11] = parameters: method as in earlier work; settings: cited from earlier work
[12] = system: HUVEC; settings: in vitro; cited from earlier work
[13] = Mouse sub-retina/sclera complex pharmacokinetics after SC injection; format: in vivo, C57BL/6J mice; settings: single SC injection 0.7 mg/kg
Procedure: This effective dosage and administration route was evaluated in dose escalation studies by using the mouse laser-induced CNV model. The AUC reflects the exposure to the drug after administration of a dose of the drug and is expressed in hour · ng/mg tissue. The AUC is dependent on the dose administered as well as the rate of elimination of the drug from the tissue. The AUC is directly proportional to the dose when the drug follows linear kinetics, and AUC is inversely proportional to the clearance of the drug. In 1 h, 3 h, 6 h, and 18 h after the SC injection, eyeballs were extracted. Tissue from the retina, the sclera, and the sub-retina complex were isolated and extracted. These tissues were immediately frozen in liquid nitrogen. The tissue was subjected to LC/MS analysis for quantitation. The detection limit was 0.25 ng/g tissue.

Row | SMILES | Drug Amount Detected in Retina [1] | Estimated serum concentration corresponding to peak plasma exposure [2] | Patients with hepatotoxicity [3] | Effect on CSC ([4]; 600 mg daily oral dose) | Effect on visual acuity and macular thickness in CSC ([4]; daily oral dosage of 300 mg) | Toxicity on repeated topical application [5] | Share of rifampicin in sub-retina and sclera complex delivered to the sub-retina [6] | Drug Amount Detected in Retina ([7]; topical 0.25% 3 drops (15 μL, 37.5 μg)) | Drug Amount Detected in Retina ([7]; topical 0.25% 10 drops (50 μL, 125 μg)) | Inhibition of neovascularization in CNV model ([8]; SC injection 0.7 mg/kg once daily, 7 days after laser) | Neovascularization inhibition level compared with intravitreal aflibercept ([8]; SC injections at doses exceeding 0.7 mg/kg) | Minimum effective dose for inhibiting neovascularization in subretinal tissues ([8]; SC, dose escalation studies) | Effective dosage in CNV model, times less than that of bacterial inhibition ([8]; vs 20 mg/kg effective systemic dosage for bacterial infection) | Number of new capillaries on the retinal surface vs vehicle control [9] | Tmax [10] | Peak plasma exposure ([11]; 600 mg intravenous dose) | Peak plasma exposure ([11]; 600 mg oral dose) | Concentration required for statistically significant inhibition of HUVEC tube formation and proliferation [12] | Peak concentration in mouse sub-retinal and scleral complex [13] | Peak concentration in mouse sub-retinal and scleral complex, calculated molar [13]
1 | C[C@@H]1C[C@H]2[C@@H]3CCC4=CC(=O)C=C[C@]4(C)[C@@]3(F)[C@@H](O)C[C@]2(C)[C@@]1(O)C(=O)CO [Dexamethasone] | 33 ng/ 1 g of retinal tissues (Rabbit, average of n = 6) | – | – | – | – | – | – | – | – | – | – | – | – | – | – | – | – | – | – | –
2 | CO[C@H]1/C=C/O[C@@]2(C)Oc3c(C)c(O)c4c(O)c(c(/C=N/N5CCN(C)CC5)c(O)c4c3C2=O)NC(=O)/C(C)=C\C=C\[C@H](C)[C@H](O)[C@@H](C)[C@@H](O)[C@@H](C)[C@H](OC(C)=O)[C@@H]1C [Rifampicin] | – | 12 to 23 µM | up to 28% | improvements in CSC | improved visual acuity and macular thickness | no toxicity | approximately 70% | 1280 ng/ 1 g of retinal tissues (Rat) SE: 394.0348 | 2939 ng/ 1 g of retinal tissues (Rat) SE: 50.54 | significantly inhibited neovascularization | equivalent to that achieved with intravitreal injection of aflibercept | 0.7 mg/kg | approximately 30 times | fewer than that in the control group | ~1 h | 9 to 17 µg/mL | 4 to 32 µg/mL | approximately 30 µM | approximately 0.03 ng/mg tissue weight | roughly 0.04 µM
